“And” between values parts separate entries of the source, which are not always exact repeats. Equal values may be shown once.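 A five-concentration, 48-hour dose response in 96-well plates underlies each endpoint, interpolated linearly between surrounding concentrations. GI50: concentration for 50% inhibition of growth. Definition used: TGI = concentration required for complete inhibition of growth.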
Assays:
Assay in all cases: NCI tumour cell line growth inhibition, 48 h
SF-539 CNS = system: SF-539 CNS
SW-620 colon = system: SW-620 colon
MOLT-4 leukemia = system: MOLT-4 leukemia
IGROV1 ovarian = system: IGROV1 ovarian
CAKI-1 renal = system: CAKI-1 renal
EKVX NSCLC = system: EKVX NSCLC
UACC-257 melanoma = system: UACC-257 melanoma
A498 renal = system: A498 renal
K-562 leukemia = system: K-562 leukemia
SK-OV-3 ovarian = system: SK-OV-3 ovarian

Compound	GI50 (SF-539 CNS)	TGI (SF-539 CNS)	GI50 (SW-620 colon)	TGI (SW-620 colon)	GI50 (MOLT-4 leukemia)	TGI (MOLT-4 leukemia)	GI50 (IGROV1 ovarian)	TGI (IGROV1 ovarian)	GI50 (CAKI-1 renal)	TGI (CAKI-1 renal)	GI50 (EKVX NSCLC)	TGI (EKVX NSCLC)	GI50 (UACC-257 melanoma)	TGI (UACC-257 melanoma)	GI50 (A498 renal)	TGI (A498 renal)	GI50 (K-562 leukemia)	TGI (K-562 leukemia)	GI50 (SK-OV-3 ovarian)	TGI (SK-OV-3 ovarian)
CCCN1C(=O)N(CCC)C2C1NC(=S)N2/N=C/C=C/c1ccccc1OC (stereo not given)	0.33 µM	2.31 µM	0.416 µM	> 100 µM	0.576 µM	> 66.2 µM	0.831 µM	> 100 µM	0.508 µM	97.5 µM	2.22 µM	> 100 µM	20.3 µM	> 100 µM	0.203 µM	1 µM	0.41 µM	> 100 µM	0.518 µM	> 100 µM
Cc1ccc(/C=C/C(=O)c2sc(-c3nc(C)c(C(=O)/C=C/c4ccc(C)cc4)s3)nc2C)cc1		> 100 µM		> 100 µM		> 100 µM		> 100 µM		> 100 µM		> 100 µM		> 100 µM		> 100 µM		> 100 µM		> 100 µM
Cc1cc(Cl)ccc1NC(=O)C(=O)Cc1nc2ccccc2o1		> 100 µM		> 100 µM		> 100 µM		> 100 µM		> 100 µM		> 100 µM		> 100 µM		> 100 µM		> 100 µM		> 100 µM
NCCNc1c2c(c(NCCN)c3[nH]ccc13)C(=O)c1ccccc1C2=O	0.0444 µM	0.885 µM	0.216 µM	1.09 µM	< 0.01 µM	0.0437 µM	1.2 µM	> 100 µM	< 0.042 µM	0.777 µM	1.25 µM	3.91 µM	2.63 µM	7.5 µM	0.231 µM	0.565 µM	0.118 µM	1.14 µM	0.79 µM	5.52 µM
COc1ccc2[nH]cc(C3(c4c[nH]c5ccc(OC)cc45)C(=O)Nc4ccc(F)cc43)c2c1	3.24 µM	10.5 µM	3.04 µM	11.5 µM	1.97 µM	6.08 µM	2.64 µM	12.6 µM	2.29 µM	10.6 µM	2.35 µM	8.07 µM	2.2 µM	6.23 µM	2.56 µM	12 µM	2.24 µM	5.78 µM	3.59 µM	13.5 µM
C=C(Cl)C(Br)(CCl)CCC(Br)C(C)(C)Cl (stereo not given)	1.98 µM	3.86 µM	1.46 µM	4.54 µM and 3.23 µM		8.82 µM	2.13 µM	4.16 µM	3.69 µM	8.08 µM and 10.2 µM		12.8 µM		7.78 µM and 8.58 µM		35.3 µM	7.84 µM	9.43 µM and 40.4 µM		27.1 µM
COc1ccc(-c2nn(-c3ccc(NC(=O)c4ccc(Cl)c(Cl)c4)cc3)cc2-c2ccncc2)cc1Cl	1.55 µM	> 19 µM	2.67 µM	> 50 µM	2.3 µM	> 50 µM	> 50 µM	> 50 µM	1.33 µM	5.26 µM	3.25 µM	> 50 µM	> 34.5 µM	> 50 µM	1.26 µM	4.52 µM	1.76 µM	> 30.6 µM	4.29 µM	> 50 µM
CN(C)CC1CCCC/C1=N/OC(=O)c1ccc(Cl)cc1 (stereo not given)		> 100 µM		> 100 µM		> 100 µM		> 100 µM		> 100 µM		> 100 µM		> 100 µM		> 100 µM		> 100 µM		> 100 µM
CCSc1ncnc2c1ncn2C1OC(CO)C(O)C1O (stereo not given)	0.437 µM	> 100 µM	0.3 µM	> 100 µM	0.173 µM	> 87.1 µM	0.442 µM	18.1 µM	0.272 µM	> 55.4 µM	0.419 µM	> 100 µM	> 19.8 µM	> 100 µM	0.081 µM	1.92 µM	3.06 µM	> 100 µM	0.754 µM	> 100 µM
COc1ccc2c(c1)C(=O)c1c-2c(N2CCN(C(=O)CNCCNCCO)CC2)nc2ccccc12	3.08 µM	10.6 µM	1.73 µM	3.28 µM	2.19 µM	6.61 µM	1.72 µM	4.73 µM	12.8 µM	35 µM	7.15 µM	19.7 µM	2.83 µM	6.4 µM	8.32 µM	20.2 µM	2.85 µM	11.9 µM	13.7 µM	28.2 µM
C=CCCCCOc1ccccc1-c1cnc(OCCCCC=C)n1C	5.82 µM	19.7 µM	2.97 µM	11 µM	4.54 µM	18.7 µM	4.64 µM	20.1 µM	4.36 µM	23.8 µM	11 µM	44.1 µM	2.14 µM	12.9 µM	2.1 µM	10.2 µM	3.74 µM	14.1 µM	3.96 µM	19.7 µM
COc1ccc(-c2nc3ccc(-c4nc5ccc(N6CCN(c7ccccc7)CC6)cc5[nH]4)cc3[nH]2)cc1OC	1.37 µM	2.81 µM	1.15 µM	2.71 µM	1.37 µM	6.47 µM	1.65 µM	3.44 µM	2.18 µM	8.02 µM	2.29 µM	5.07 µM	2.05 µM	4.4 µM	2.93 µM	9.63 µM	0.366 µM	2.92 µM	5.34 µM	18.6 µM
Cc1ccc(NC(=O)CC2CC2)cc1-c1ccc(C(=O)NCC2CC2)cc1	> 25 µM	> 25 µM	> 25 µM	> 25 µM	> 25 µM	> 25 µM	> 25 µM	> 25 µM	> 25 µM	> 25 µM	> 25 µM	> 25 µM	> 25 µM	> 25 µM	> 25 µM	> 25 µM	> 14.1 µM	> 25 µM	> 25 µM	> 25 µM
COc1cc(F)ccc1-c1ncnc(Nc2cccc(CS(C)(=N)=O)c2)n1 (stereo not given)	0.385 µM	2.94 µM	0.673 µM	> 100 µM	2.01 µM	7.06 µM	0.65 µM	> 100 µM	1.92 µM	> 100 µM	1.4 µM	37.2 µM			0.424 µM	1.66 µM	3.78 µM	> 100 µM	2.9 µM	> 100 µM
O=C1Nc2ccccc2/C1=N\[O-].O=C1Nc2ccccc2/C1=N\[O-].[Cu+2]	> 100 µM	> 100 µM	> 100 µM	> 100 µM	> 100 µM	> 100 µM	> 100 µM	> 100 µM	> 100 µM	> 100 µM	> 100 µM	> 100 µM	> 100 µM	> 100 µM	> 100 µM	> 100 µM	> 100 µM	> 100 µM	> 100 µM	> 100 µM
Nc1nc(/C=C\c2ccc([N+](=O)[O-])s2)nc(N2CCCC2)n1	8.24 µM	30.4 µM	2.76 µM	24 µM	2.16 µM	12.1 µM	4.72 µM	17.2 µM	7.1 µM	24.6 µM	10.8 µM	30 µM	4.39 µM	15.6 µM	16.6 µM	34.6 µM	1.83 µM	8.32 µM	9.25 µM	30.4 µM
Cc1ccc(NC(=O)CCc2cc(C(C)(C)C)nc(=S)[nH]2)cc1C		> 100 µM		> 100 µM		> 100 µM		> 100 µM		> 100 µM		> 100 µM		> 100 µM		> 100 µM		> 100 µM		> 100 µM
COc1cc2c3c(n(C)c(=O)c2cc1OC)-c1cc2c(cc1/C3=C\CN)OCO2	0.227 µM			> 41.3 µM	< 0.0208 µM	0.433 µM	1.35 µM	> 100 µM	0.132 µM	1.81 µM	11.6 µM	> 100 µM	1.44 µM	20.4 µM	3.07 µM	86.8 µM	0.106 µM		0.412 µM	
CCOC(=O)Nc1ccc(-c2nc(-c3cccc(OCCN4CCOCC4)c3)c(-c3ccnc(Br)c3)[nH]2)cc1	2.08 µM	7.48 µM	3.42 µM	> 100 µM	2.23 µM	> 100 µM	3.65 µM	> 100 µM			3.2 µM	> 100 µM	2.21 µM	5.24 µM	1.66 µM	5.66 µM	2.53 µM	> 100 µM	2.66 µM	6.25 µM
C1CN2CCN3CCN4CCN1[P+]243		> 100 µM		> 100 µM		> 100 µM		> 100 µM				> 100 µM		> 100 µM		> 100 µM		> 100 µM		> 100 µM
COC(=O)C(Cc1nc2ccc(Cl)cc2[nH]c1=O)/C(=N\N)C(=O)Nc1cc(C)c(Cl)cc1S(=O)(=O)O (stereo not given)		> 100 µM				> 100 µM		> 100 µM		> 100 µM		> 100 µM		> 100 µM		> 100 µM		> 100 µM		> 100 µM
